Data: US12570655B2, “Cysteine covalent modifiers of AKT1 and uses thereof” (Terremoto Biosciences, Inc., priority 2023, dated 2026)
pIC50: −log10 of the molar value. Where two headings read alike, the source gives them in different places.

What was measured:
Format in all cases: cell-based
[1] = target: T1, AKT1 E17K (Homo sapiens, UniProt P31749, E17K); test: Live cell AKT1 E17K target engagement by NanoBRET competitive probe displacement; conditions: HEK293 cells transfected with kinase-NanoLuciferase fusion, 2 h at 37° C.
T1 construct: expressed in transfected cells; host or cells: HEK293
T1 sequence (P31749 whole entry E17K, the tested form may be a part): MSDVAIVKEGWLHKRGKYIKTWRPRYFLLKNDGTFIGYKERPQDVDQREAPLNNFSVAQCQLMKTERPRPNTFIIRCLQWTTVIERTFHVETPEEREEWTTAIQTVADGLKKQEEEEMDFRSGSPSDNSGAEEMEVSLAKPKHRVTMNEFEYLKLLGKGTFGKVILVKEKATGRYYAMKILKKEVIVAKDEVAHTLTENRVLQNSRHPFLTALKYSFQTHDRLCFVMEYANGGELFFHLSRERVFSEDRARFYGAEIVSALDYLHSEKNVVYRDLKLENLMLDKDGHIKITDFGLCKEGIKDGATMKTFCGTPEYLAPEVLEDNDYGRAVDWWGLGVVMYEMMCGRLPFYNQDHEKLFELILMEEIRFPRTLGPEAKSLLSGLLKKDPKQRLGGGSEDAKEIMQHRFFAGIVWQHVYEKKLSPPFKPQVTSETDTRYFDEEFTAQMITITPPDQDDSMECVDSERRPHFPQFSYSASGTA
How it was run: (§1)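 Luminescence ratio 600/460 nm served as readout after HEK293 cells bearing transiently expressed kinase–NanoLuciferase fusions were exposed 2 h at 37 °C to test compound alongside an ATP-competitive fluorescent tracer near EC50. Extracellular signal was quenched by a luciferase inhibitor.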

[2] = target: T2, AKT2 (Homo sapiens, UniProt P31751); test: Live cell AKT2 target engagement by NanoBRET competitive probe displacement; conditions: HEK293 cells transfected with kinase-NanoLuciferase fusion, 2 h at 37° C.
T2 construct: expressed in transfected cells; host or cells: HEK293
T2 sequence (P31751 whole entry, the tested form may be a part): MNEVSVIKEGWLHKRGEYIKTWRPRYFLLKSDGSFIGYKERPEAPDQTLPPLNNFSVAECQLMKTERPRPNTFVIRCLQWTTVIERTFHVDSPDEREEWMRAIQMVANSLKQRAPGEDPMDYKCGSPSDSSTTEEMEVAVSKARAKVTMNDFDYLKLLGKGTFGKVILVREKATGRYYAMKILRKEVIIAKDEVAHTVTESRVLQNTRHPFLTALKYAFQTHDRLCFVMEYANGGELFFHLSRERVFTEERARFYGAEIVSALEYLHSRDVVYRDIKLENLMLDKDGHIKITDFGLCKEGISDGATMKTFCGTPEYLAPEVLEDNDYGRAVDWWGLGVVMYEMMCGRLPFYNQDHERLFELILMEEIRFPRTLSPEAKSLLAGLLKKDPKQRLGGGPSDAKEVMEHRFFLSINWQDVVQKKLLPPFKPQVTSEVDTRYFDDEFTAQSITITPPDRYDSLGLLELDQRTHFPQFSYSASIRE
How it was run: as §1

[3] = target: T3, AKT1 WT (Homo sapiens, UniProt P31749); test: Live cell AKT1 WT target engagement by NanoBRET competitive probe displacement; conditions: HEK293 cells transfected with kinase-NanoLuciferase fusion, 2 h at 37° C.
T3 construct: expressed in transfected cells; host or cells: HEK293
T3 sequence (P31749 whole entry, the tested form may be a part): as the sequence (P31749 whole entry E17K, the tested form may be a part) above, with K17E counted along it
How it was run: as §1

[4] = system: LAPC4 prostate cancer cells; test: Antiproliferative effects in LAPC4 cells (CellTiter Glo); conditions: LAPC4 cells (AKT1 E17K allele), read-out: LAPC4 proliferation IC50
How it was run: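 IC50 values reflect 72 h compound treatment of cells plated at 1,000 per well, with CellTiter Glo luminescence as the viability read-out.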

| pIC50 [1] | pIC50 [2] | pIC50 [3] | pIC50 ([4]; 72 h) | pIC50 ([4]; Homo sapiens, LAPC4, 72 h) | Compound |
| --- | --- | --- | --- | --- | --- |
| 6.82 | 6.04 | 7.49 | 6.40 | – | C=CC(=O)N1CCN(NC2CCc3cc(-n4c(-c5cccnc5N)nc5ccc(-n6cccn6)nc54)ccc32)CC1 (single isomer, unassigned) [Example 147, (*)-1-(4-((5-(2-(2-aminopyridin-3-yl)-5-(1H-pyrazol-1-yl)-3H-imidazo[4,5-b]pyridin-3-yl)-2,3-dihydro-1H-inden-1-yl)amino)piperazin-1-yl)prop-2-en-1-one] |
| 7.72 | 7.54 | 6.92 | – | 6.33 | Nc1ncccc1-c1nc2ccc(-n3cccn3)nc2n1-c1ccc2c(c1)CC[C@@H]2NC1CCN(C(=O)CCl)CC1 [Example 197, 1-(4-{[(1S)-5-[2-(2-aminopyridin-3-yl)-5-(pyrazol-1-yl)imidazo[4,5-b]pyridin-3-yl]-2,3-dihydro-1H-inden-1-yl]amino}piperidin-1-yl)-2-chloroethanone] |
| 7.24 | 6.65 | 7.60 | – | 6.45 | CC#CC(=O)N1CCC(N[C@H]2CCc3cc(-n4c(-c5cccnc5N)nc5ccc(-n6cccn6)nc54)ccc32)CC1 [Example 69, 1-(4-{[(1S)-5-[2-(2-aminopyridin-3-yl)-5-(pyrazol-1-yl)imidazo[4,5-b]pyridin-3-yl]-2,3-dihydro-1H-inden-1-yl]amino}piperidin-1-yl)but-2-yn-1-one] |
| 6.95 | 7.15 | 8.15 | – | 5.95 | C=C(F)C(=O)Nc1cccc(C(=O)N[C@H]2CCc3cc(-n4c(-c5cccnc5N)nc5ccc(-n6cccn6)nc54)ccc32)c1 [Example 8, (S)-N-(5-(2-(2-aminopyridin-3-yl)-5-(1H-pyrazol-1-yl)-3H-imidazo[4,5-b]pyridin-3-yl)-2,3-dihydro-1H-inden-1-yl)-3-(2-fluoroacrylamido)benzamide] |
| < 6.00 | 5.30 | 6.52 | – | 5.01 | C=CC(=O)Nc1cnccc1C(=O)N[C@H]1CCc2cc(-n3c(-c4cccnc4N)nc4ccc(-n5cccn5)nc43)ccc21 [Example 41, N-[(1S)-5-[2-(2-aminopyridin-3-yl)-5-(pyrazol-1-yl)imidazo[4,5-b]pyridin-3-yl]-2,3-dihydro-1H-inden-1-yl]-3-(prop-2-enamido)pyridine-4-carboxamide] |
| 7.49 | 6.44 | 5.57 | – | 6.06 | C=CC(=O)N1CCC(N[C@H]2CCc3cc(-n4c(-c5cccnc5N)nc5ccc(C(F)(F)F)nc54)ccc32)CC1 [Example 348] |
| 7.77 | 6.57 | 6.04 | – | 6.42 | C=CC(=O)N1CCC(N[C@H]2CCc3cc(-n4c(-c5cccnc5N)nc5ccc(C6CC6)nc54)ccc32)C[C@H]1C (single isomer, unassigned) [Example 210, 1-((2R,4*)-4-(((S)-5-(2-(2-aminopyridin-3-yl)-5-cyclopropyl-3H-imidazo[4,5-b]pyridin-3-yl)-2,3-dihydro-1H-inden-1-yl)amino)-2-methylpiperidin-1-yl)prop-2-en-1-one] |
| 7.08 | 6.54 | 7.74 | 6.57 | – | C=CC(=O)N1CCC(N[C@H]2CCc3cc(-n4c(-c5cccnc5N)nc5ccc(-n6cccn6)nc54)ccc32)C(C)C1 (single isomer, unassigned) [Example 101, 1-((3*,4*)-4-(((S)-5-(2-(2-aminopyridin-3-yl)-5-(1H-pyrazol-1-yl)-3H-imidazo[4,5-b]pyridin-3-yl)-2,3-dihydro-1H-inden-1-yl)amino)-3-methylpiperidin-1-yl)prop-2-en-1-one] |
| 6.95 | 6.55 | 5.67 | – | 5.65 | C=CC(=O)N1CCC(N[C@H]2CCc3cc(-n4c(-c5cccnc5F)nc5ccc(-n6cccn6)nc54)ccc32)CC1 [Example 251, 1-(4-{[(1S)-5-[2-(2-fluoropyridin-3-yl)-5-(pyrazol-1-yl)imidazo[4,5-b]pyridin-3-yl]-2,3-dihydro-1H-inden-1-yl]amino}piperidin-1-yl)prop-2-en-1-one] |
